Laboratory results: BindingDB's records for PubMed 34735766 (Shandong University, 2021)

Assay: Inhibition of Influenza A virus H1N1 Neuraminidase

CCC(CC)O[C@@H]1C=C(C(=O)O)C[C@H](NCc2ccc(Sc3ccccc3)cc2)[C@H]1NC(C)=O
IC50: 5.6 nM
